Reference: paper PMC10331583, “Control of fibrosis with enhanced safety via asymmetric inhibition of prolyl‐tRNA synthetase 1” (EMBO Molecular Medicine, 2023)
“And” between values parts separate entries of the source, which are not always exact repeats. Identical values can stand only once.

Key:
[1] = CellTiter‐Glo assay (cytotoxicity); conditions: human, WI-26 VA4 cells
Protocol: (§1) After 24 h, the cells were incubated with various concentrations of compounds for 48 h. The level of ATP as a measure of cell viability was determined using a CellTiter‐Glo® luminescent cell viability assay kit (Promega, G7571) following the manufacturer's instructions.
(§2) WI‐26 VA4 cells were seeded at 1.2 × 10^4 cells/well in 96‐well white plates. After 24 h, the cells were incubated with the indicated concentrations of compounds for 72 h. The viability was determined as described above.

WI‐26 VA4 cells [2] = assay: CellTiter‐Glo assay (cytotoxicity)
Protocol: as §1, §2

WI‐26 VA4 cells [3] = assay: Puromycin incorporation assay; type: cell-based, human
Outline: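 WI‐26 VA4 cell lysates prepared in carbonate-bicarbonate buffer with protease inhibitor; 400 ng protein coated on ELISA plates 18 h at 4°C. Puromycin incorporated into proteins detected by antibody ELISA, absorbance 450 nm with 620 nm reference; outlier values excluded based on replicates and adjacent concentrations.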

WI‐26 VA4 cells [4] = assay: Collagen ELISA (secreted pro‐collagen I)
Protocol: WI‐26 VA4 cells were seeded at 3.5 × 10^4 cells/well on 24 well plates. After 24 h, the cells were starved of serum for 6 h. Then, the cells were incubated with the indicated concentrations of compounds in the presence of TGF‐β (2 ng/ml) (R&D systems, 240‐B‐002) for 72 h. The supernatant of the cells was collected and centrifuged at 500 g for 5 min to remove cell debris. Then, the level of pro‐collagen I in the supernatant was determined using Human Pro‐collagen I alpha 1 DuoSet ELISA (R&D systems, DY6220‐05) and DuoSet ELISA Ancillary Reagent Kit 2 (R&D systems, DY008) following the manufacturer's instructions.

[5] = log(inhibitor) vs. response, variable slope (four parameters), concentration in nM

## O[C@H]1CCCN[C@@H]1CCCn1cnc2c(Cl)c(Cl)ccc21 [DWN12088]
[1]; CC50 (CellTiter-Glo), 72 h (Fig 5B)
  CC50 at 72 h: 20.3 µM
[1]; CC50, 72 h (Fig 1B)
  CC50 at 72 h: 20.8 µM
WI‐26 VA4 cells [2]; Fig 1B
  CC50 fold versus HF: ~ 397 fold
WI‐26 VA4 cells [2]; Homo sapiens, WI26VA4, read-out: CellTiter-Glo % of control, 10 nM, Experiment #1, replicates
  activity at 0.01 µM: 107%
WI‐26 VA4 cells [2]; Homo sapiens, WI26VA4, read-out: CellTiter-Glo % of control, 10 nM, Experiment #2, replicates
  activity at 0.01 µM: 105%
WI‐26 VA4 cells [2]; Homo sapiens, WI26VA4, read-out: CellTiter-Glo % of control, 30 nM, Experiment #1, replicates
  activity at 0.03 µM: 95.8%
WI‐26 VA4 cells [2]; Homo sapiens, WI26VA4, read-out: CellTiter-Glo % of control, 30 nM, Experiment #2, replicates
  activity at 0.03 µM: 108%
WI‐26 VA4 cells [2]; Homo sapiens, WI26VA4, read-out: CellTiter-Glo % of control, 100 nM, Experiment #1, replicates
  activity at 0.1 µM: 107%
WI‐26 VA4 cells [2]; Homo sapiens, WI26VA4, read-out: CellTiter-Glo % of control, 100 nM, Experiment #2, replicates
  activity at 0.1 µM: 107%
WI‐26 VA4 cells [2]; Homo sapiens, WI26VA4, read-out: CellTiter-Glo % of control, 300 nM, Experiment #1, replicates
  activity at 0.3 µM: 109%
WI‐26 VA4 cells [2]; Homo sapiens, WI26VA4, read-out: CellTiter-Glo % of control, 300 nM, Experiment #2, replicates
  activity at 0.3 µM: 102%
WI‐26 VA4 cells [2]; Homo sapiens, WI26VA4, read-out: CellTiter-Glo % of control, 1000 nM, Experiment #1, replicates
  activity at 1 µM: 106%
WI‐26 VA4 cells [2]; Homo sapiens, WI26VA4, read-out: CellTiter-Glo % of control, 1000 nM, Experiment #2, replicates
  activity at 1 µM: 105%
WI‐26 VA4 cells [2]; Homo sapiens, WI26VA4, read-out: CellTiter-Glo % of control, 3000 nM, Experiment #1, replicates
  activity at 3 µM: 88.2%
WI‐26 VA4 cells [2]; Homo sapiens, WI26VA4, read-out: CellTiter-Glo % of control, 3000 nM, Experiment #2, replicates
  activity at 3 µM: 90.3%
WI‐26 VA4 cells [2]; Homo sapiens, WI26VA4, read-out: CellTiter-Glo % of control, 10000 nM, Experiment #1, replicates
  activity at 10 µM: 71.7%
WI‐26 VA4 cells [2]; Homo sapiens, WI26VA4, read-out: CellTiter-Glo % of control, 10000 nM, Experiment #2, replicates
  activity at 10 µM: 92%
WI‐26 VA4 cells [2]; Homo sapiens, WI26VA4, read-out: CellTiter-Glo % of control, 30000 nM, Experiment #1, replicates
  activity at 30 µM: 34.8%
WI‐26 VA4 cells [2]; Homo sapiens, WI26VA4, read-out: CellTiter-Glo % of control, 30000 nM, Experiment #2, replicates
  activity at 30 µM: 38.4%
WI‐26 VA4 cells [2]; Homo sapiens, WI26VA4, read-out: CellTiter-Glo % of control, 100000 nM, Experiment #1, replicates
  activity at 100 µM: 26.4%
WI‐26 VA4 cells [2]; Homo sapiens, WI26VA4, read-out: CellTiter-Glo % of control, 100000 nM, Experiment #2, replicates
  activity at 100 µM: 20.9%
WI‐26 VA4 cells [2]; Homo sapiens, WI26VA4, read-out: CellTiter-Glo % of control, average, 10 nM, average
  activity at 0.01 µM: 104%
WI‐26 VA4 cells [2]; Homo sapiens, WI26VA4, read-out: CellTiter-Glo % of control, average, 30 nM, average
  activity at 0.03 µM: 104%
WI‐26 VA4 cells [2]; Homo sapiens, WI26VA4, read-out: CellTiter-Glo % of control, average, 100 nM, average
  activity at 0.1 µM: 109%
WI‐26 VA4 cells [2]; Homo sapiens, WI26VA4, read-out: CellTiter-Glo % of control, average, 300 nM, average
  activity at 0.3 µM: 108%
WI‐26 VA4 cells [2]; Homo sapiens, WI26VA4, read-out: CellTiter-Glo % of control, average, 1000 nM, average
  activity at 1 µM: 102%
WI‐26 VA4 cells [2]; Homo sapiens, WI26VA4, read-out: CellTiter-Glo % of control, average, 3000 nM, average
  activity at 3 µM: 84.7%
WI‐26 VA4 cells [2]; Homo sapiens, WI26VA4, read-out: CellTiter-Glo % of control, average, 10000 nM, average
  activity at 10 µM: 77.5%
WI‐26 VA4 cells [2]; Homo sapiens, WI26VA4, read-out: CellTiter-Glo % of control, average, 30000 nM, average
  activity at 30 µM: 34.6%
WI‐26 VA4 cells [2]; Homo sapiens, WI26VA4, read-out: CellTiter-Glo % of control, average, 100000 nM, average
  activity at 100 µM: 22.4%
WI‐26 VA4 cells [2]; Homo sapiens, WI26VA4, read-out: CellTiter-Glo % of control, average, 300000 nM, average
  activity at 300 µM: 1.88%
WI‐26 VA4 cells [2]; Homo sapiens, WI26VA4, read-out: CellTiter-Glo % of control, average, 1000000 nM, average
  activity at 1000 µM: 0.11%
WI‐26 VA4 cells [2]; [5]
  CellTiter-Glo LogIC50 (best-fit value): 4.308
WI‐26 VA4 cells [3]; 30000 nM, 30 µM
  Puromycin, % of control, single replicate: 67.68 % of control (2×) and 67.72 % of control (2×) and 65.74 % of control (2×) and 95.99 % of control and 94.34 % of control and 94.68 % of control
WI‐26 VA4 cells [3]; 300000 nM, 300 µM
  Puromycin, % of control, single replicate: 0.28 % of control (2×) and -0.36 % of control (2×) and 0.08 % of control (2×) and 0.75 % of control and 0.84 % of control and 0.22 % of control
WI‐26 VA4 cells [3]; 1000000 nM, 1000 µM
  Puromycin, % of control, single replicate: -0.0139 % of control (2×) and -0.24 % of control (2×) and 0.08 % of control (2×) and 0.39 % of control (2×) and 0.49 % of control
WI‐26 VA4 cells [3]; Homo sapiens, WI26VA4, read-out: Puromycin, % of control, average, 300 nM
  activity at 0.3 µM: 104%
WI‐26 VA4 cells [3]; Homo sapiens, WI26VA4, read-out: Puromycin, % of control, average, 1000 nM
  activity at 1 µM: 109%
WI‐26 VA4 cells [3]; Homo sapiens, WI26VA4, read-out: Puromycin, % of control, average, 3000 nM
  activity at 3 µM: 103%
WI‐26 VA4 cells [3]; Homo sapiens, WI26VA4, read-out: Puromycin, % of control, average, 30000 nM
  activity at 30 µM: 76.4%
WI‐26 VA4 cells [3]; Homo sapiens, WI26VA4, read-out: Puromycin, % of control, average, 100000 nM
  activity at 100 µM: 29.7%
WI‐26 VA4 cells [3]; Homo sapiens, WI26VA4, read-out: Puromycin, % of control, average, 300000 nM
  activity at 300 µM: 0.2%
WI‐26 VA4 cells [3]; Homo sapiens, WI26VA4, read-out: Puromycin, % of control, average, 1000000 nM
  activity at 1000 µM: 0.1%
WI‐26 VA4 cells [3]; Homo sapiens, WI26VA4, read-out: Puromycin, % of control, single replicate, 300 nM
  activity at 0.3 µM: 107%
WI‐26 VA4 cells [3]; Homo sapiens, WI26VA4, read-out: Puromycin, % of control, single replicate, 1000 nM
  activity at 1 µM: 107%
WI‐26 VA4 cells [3]; Homo sapiens, WI26VA4, read-out: Puromycin, % of control, single replicate, 3000 nM
  activity at 3 µM: 99.5%
WI‐26 VA4 cells [3]; Homo sapiens, WI26VA4, read-out: Puromycin, % of control, single replicate, 10000 nM
  activity at 10 µM: 98.3%
WI‐26 VA4 cells [3]; Homo sapiens, WI26VA4, read-out: Puromycin, % of control, single replicate, 100000 nM
  activity at 100 µM: 27.4%
WI‐26 VA4 cells [3]; Homo sapiens, WI26VA4, read-out: Puromycin, IC50 (best-fit value)
  IC50: 56.8 µM
WI‐26 VA4 cells [3]; log(inhibitor) vs. response, variable slope (four parameters)
  Puromycin, HillSlope (best-fit value): -1.616
WI‐26 VA4 cells [3]; [5]
  Puromycin, LogIC50 (best-fit value): 4.754
WI‐26 VA4 cells [4]; 10 nM, 0.01 µM
  Collagen, % of control (single replicates per experiment): 101.76 % of control
WI‐26 VA4 cells [4]; 30 nM, 0.03 µM
  Collagen, % of control (single replicates per experiment): 120.03 % of control and 114.52 % of control and 91.73 % of control and 89.16 % of control and 97.48 % of control and 99.13 % of control and 133.18 % of control and 134.10 % of control
WI‐26 VA4 cells [4]; 100 nM, 0.1 µM
  Collagen, % of control (single replicates per experiment): 111.05 % of control and 113.92 % of control and 88.23 % of control and 93.03 % of control and 102.46 % of control and 102.99 % of control and 133.45 % of control and 119.32 % of control
WI‐26 VA4 cells [4]; 300 nM, 0.3 µM
  Collagen, % of control (single replicates per experiment): 97.76 % of control and 92.78 % of control and 92.20 % of control and 87.32 % of control and 95.43 % of control and 105.10 % of control and 105.64 % of control and 109.03 % of control
WI‐26 VA4 cells [4]; 1000 nM, 1 µM
  Collagen, % of control (single replicates per experiment): 75.49 % of control and 75.29 % of control and 77.13 % of control and 68.65 % of control and 66.58 % of control and 66.40 % of control and 103.27 % of control and 103.19 % of control
WI‐26 VA4 cells [4]; 3000 nM, 3 µM
  Collagen, % of control (single replicates per experiment): 24.90 % of control and 21.92 % of control
WI‐26 VA4 cells [4]; Fig 1C
  TI (CC50/IC50 for collagen level): 10.29
WI‐26 VA4 cells [4]; Fig 5E
  CC50/collagen IC50: 10.07
WI‐26 VA4 cells [4]; Homo sapiens, WI26VA4, 72 h, read-out: IC50 for collagen level
  IC50: 2.02 µM
WI‐26 VA4 cells [4]; Homo sapiens, WI26VA4, read-out: Collagen IC50 (best-fit value)
  IC50: 2.02 µM
WI‐26 VA4 cells [4]; Homo sapiens, WI26VA4, read-out: Collagen, % of control (single replicates per experiment), 10 nM
  activity at 0.01 µM: 101%
WI‐26 VA4 cells [4]; Homo sapiens, WI26VA4, read-out: Collagen, % of control (single replicates per experiment), 300000 nM
  activity at 300 µM: 3.81%
WI‐26 VA4 cells [4]; Homo sapiens, WI26VA4, read-out: Collagen, % of control, average, 10 nM, average
  activity at 0.01 µM: 101%
WI‐26 VA4 cells [4]; Homo sapiens, WI26VA4, read-out: Collagen, % of control, average, 30 nM, average
  activity at 0.03 µM: 103%
WI‐26 VA4 cells [4]; Homo sapiens, WI26VA4, read-out: Collagen, % of control, average, 100 nM, average
  activity at 0.1 µM: 105%
WI‐26 VA4 cells [4]; Homo sapiens, WI26VA4, read-out: Collagen, % of control, average, 300 nM, average
  activity at 0.3 µM: 96.4%
WI‐26 VA4 cells [4]; Homo sapiens, WI26VA4, read-out: Collagen, % of control, average, 1000 nM, average
  activity at 1 µM: 78.8%
